SMILES strings stand for the structures. Values after ≈ are worked out from the molar mass of the structure shown. Where only a bound is given, the exact number is not on record here.

Experimental findings from ChEMBL document CHEMBL1150218, “Antitubercular activity of triterpenoids from Lippia turbinata” (J Nat Prod, 2001) are described below.

For the first test, the system named is Mycobacterium tuberculosis. As to the kind of experiment: Antitubercular activity against Mycobacterium tuberculosis H37Rv ATCC 27294 by radiometric BACTEC 460 system.
Conditions: not given
Type of test: functional.
By MIC is commonly meant the smallest concentration in the dilution series that meets the test's criterion for growth inhibition. Compound `CO[C@H]1/C=C/O[C@@]2(C)Oc3c(C)c(O)c4c(O)c(c(/C=N/N5CCN(C)CC5)c(O)c4c3C2=O)NC(=O)/C(C)=C\C=C\[C@H](C)[C@H](O)[C@@H](C)[C@@H](O)[C@@H](C)[C@H](OC(C)=O)[C@@H]1C` [RIFAMPIN] came in with a minimal inhibitory concentration (MIC) of 0.3 µM (≈ 0.247 µg/mL).
As for `C/C=C(/C)C(=O)O[C@@H]1[C@@H](O)C(C)(C)C[C@H]2C3=CC[C@@H]4[C@]56CC[C@](O)(OC5)C(C)(C)[C@@H]6CC[C@@]4(C)[C@]3(C)CC[C@@]12C(=O)O`, the minimal inhibitory concentration (MIC) stood at 64 µM (≈ 37.4 µg/mL).
Still for that read-out and setting: with `CC(C)=CC(=O)O[C@@H]1[C@@H](O)C(C)(C)C[C@H]2C3=CC[C@@H]4[C@]56CC[C@](O)(OC5)C(C)(C)[C@@H]6CC[C@@]4(C)[C@]3(C)CC[C@@]12C(=O)O` the figure was 128 µM (≈ 74.9 µg/mL); with `CC1(C)CC[C@]2(C(=O)O)CC[C@]3(C)C(=CC[C@@H]4[C@]56CC[C@@](O)(OC5)C(C)(C)[C@@H]6CC[C@]43C)[C@@H]2C1` [LANTANOLIC ACID], above 128 µM.
Same read-out and setting: to `C/C=C(/C)C(=O)O[C@@H]1CC(C)(C)C[C@H]2C3=CC[C@@H]4[C@@]5(C)CCC(=O)C(C)(C)[C@@H]5CC[C@@]4(C)[C@]3(C)CC[C@@]12C(=O)O` [LANTADENE A] belongs 32 µM (≈ 17.7 µg/mL); to `C/C=C(/C)C(=O)O[C@@H]1CC(C)(C)C[C@H]2C3=CC[C@@H]4[C@]56CC[C@@](O)(OC5)C(C)(C)[C@@H]6CC[C@@]4(C)[C@]3(C)CC[C@@]12C(=O)O` [CAMARIC ACID], 64 µM (≈ 36.4 µg/mL); to `CCC(C)C(=O)O[C@@H]1CC(C)(C)C[C@H]2C3=CC[C@@H]4[C@]56CC[C@](O)(OC5)C(C)(C)[C@@H]6CC[C@@]4(C)[C@]3(C)CC[C@@]12C(=O)O` (stereo not given in full), 128 µM (≈ 73.1 µg/mL).
Same read-out and setting: with `CC(C)=CC(=O)O[C@@H]1CC(C)(C)C[C@H]2C3=CC[C@@H]4[C@]56CC[C@@](O)(OC5)C(C)(C)[C@@H]6CC[C@@]4(C)[C@]3(C)CC[C@@]12C(=O)O` [LANTANILIC ACID] the figure was above 128 µM.
For `C/C=C(\C)C(=O)O[C@@H]1[C@@H](O)C(C)(C)C[C@H]2C3=CC[C@@H]4[C@]56CC[C@](O)(OC5)C(C)(C)[C@@H]6CC[C@@]4(C)[C@]3(C)CC[C@@]12C(=O)O`, the MIC was 128 µM (≈ 74.9 µg/mL).

In a further test the test system is Vero. Description: Cytotoxicity against african green monkey Vero cells. Type of test: cell-based. As to conditions: Chlorocebus sabaeus.
Broadly, the IC50 is the concentration that gives 50% inhibition. Consider `C/C=C(/C)C(=O)O[C@@H]1CC(C)(C)C[C@H]2C3=CC[C@@H]4[C@@]5(C)CCC(=O)C(C)(C)[C@@H]5CC[C@@]4(C)[C@]3(C)CC[C@@]12C(=O)O` [LANTADENE A], for which the IC50 was determined as 15 µM.
